In ChEMBL document CHEMBL1125129, “Design of potent and selective linear antagonists of vasopressor (V1-receptor) responses to vasopressin” (J Med Chem, 1990):

Experiments:
Rattus norvegicus = assay: pA2 value was determined for antidiuretic V2 antagonistic activity in vivo in anesthetized rats pA2 value was determined for antidiuretic V2 antagonistic activity in vivo in anesthetized rats; format: functional, organism-based; details: Urine, read-out: pA2 (converted)
Vasopressin V1 receptor = Vasopressin V1 receptor (Rattus norvegicus, UniProt P48974+P30560); assay: pA2 value was determined for Vasopressin V1 receptor antagonistic activity in vivo in anesthetized rats; format: functional, organism-based
[1] = target: Vasopressin V1 receptor (Rattus norvegicus) (UniProt P48974+P30560); assay: Effective dose was determined for Vasopressin V1 receptor antagonistic activity in vivo in anesthetized rats; format: functional, organism-based
[2] = target: Vasopressin V2 receptor (Rattus norvegicus) (UniProt Q00788); assay: Effective dose was determined for Vasopressin V2 receptor antagonistic activity in vivo in anesthetized rats; format: functional, organism-based
Vasopressin V2 receptor = Vasopressin V2 receptor (Rattus norvegicus, UniProt Q00788); assay: Vasopressin V2 receptor antagonistic activity in vivo in anesthetized rats; format: functional, organism-based; details: for Kb: read-out: pA2 (converted)
[3] = target: Vasopressin V2 receptor (Rattus norvegicus) (UniProt Q00788); assay: Selectivity ratio of antidiuretic Vasopressin V2 receptor ED /[…] receptor ED; details: Urine

Vasopressin V2 receptor (Rattus norvegicus), sequence (Q00788 whole entry): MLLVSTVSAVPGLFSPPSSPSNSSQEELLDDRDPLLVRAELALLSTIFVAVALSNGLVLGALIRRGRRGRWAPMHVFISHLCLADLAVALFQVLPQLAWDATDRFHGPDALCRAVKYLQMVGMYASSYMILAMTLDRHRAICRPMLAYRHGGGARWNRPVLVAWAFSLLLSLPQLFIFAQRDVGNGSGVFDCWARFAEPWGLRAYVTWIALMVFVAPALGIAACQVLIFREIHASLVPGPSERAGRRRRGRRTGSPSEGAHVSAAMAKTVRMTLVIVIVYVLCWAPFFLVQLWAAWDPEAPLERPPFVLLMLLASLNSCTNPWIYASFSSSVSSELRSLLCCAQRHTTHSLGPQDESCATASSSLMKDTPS
Vasopressin V2 receptor, sequence (Q00788 whole entry): as above
Vasopressin V1 receptor (Rattus norvegicus), sequence (P30560 whole entry, looked up): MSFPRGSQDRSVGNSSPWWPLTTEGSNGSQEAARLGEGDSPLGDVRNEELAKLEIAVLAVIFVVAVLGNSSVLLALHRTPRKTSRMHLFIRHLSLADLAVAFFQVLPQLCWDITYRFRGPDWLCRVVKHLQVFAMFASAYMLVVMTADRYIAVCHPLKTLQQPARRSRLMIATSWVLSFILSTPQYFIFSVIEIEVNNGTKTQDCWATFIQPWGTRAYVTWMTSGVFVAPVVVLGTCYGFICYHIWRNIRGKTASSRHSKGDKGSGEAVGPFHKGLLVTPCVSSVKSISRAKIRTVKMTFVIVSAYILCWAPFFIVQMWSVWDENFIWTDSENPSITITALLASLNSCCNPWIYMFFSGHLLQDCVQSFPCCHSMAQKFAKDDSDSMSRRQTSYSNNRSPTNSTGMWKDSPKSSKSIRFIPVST
Vasopressin V1 receptor (Rattus norvegicus), sequence (P48974 whole entry, looked up): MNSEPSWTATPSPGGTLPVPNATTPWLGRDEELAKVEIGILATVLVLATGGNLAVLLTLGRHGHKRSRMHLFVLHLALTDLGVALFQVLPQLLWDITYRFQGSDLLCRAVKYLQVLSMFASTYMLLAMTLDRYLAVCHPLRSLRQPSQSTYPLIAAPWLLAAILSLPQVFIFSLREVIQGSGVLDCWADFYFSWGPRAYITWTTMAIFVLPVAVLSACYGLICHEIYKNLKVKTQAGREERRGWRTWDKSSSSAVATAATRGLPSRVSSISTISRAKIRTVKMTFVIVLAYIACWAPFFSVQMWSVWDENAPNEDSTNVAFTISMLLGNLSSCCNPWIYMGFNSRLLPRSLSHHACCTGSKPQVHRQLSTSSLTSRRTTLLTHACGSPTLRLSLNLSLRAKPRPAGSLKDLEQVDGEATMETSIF

Question: How did the Kb (Rattus norvegicus) turn out when CCOc1ccc(C[C@@H](NC(=O)CC23CC4CC(CC(C4)C2)C3)C(=O)N[C@@H](Cc2ccccc2)C(=O)N[C@H](C(=O)N[C@@H](CC(N)=O)C(=O)N[C@@H](CCCN=C(N)N)C(=O)N2CCC[C@H]2C(=O)N[C@@H](CCCN=C(N)N)C(N)=O)C(C)C)cc1 was run?
Answer: Its Kb is 18.6 nM.

Question: What about the pA2 (Vasopressin V1 receptor) of the same compound?
Answer: Its pA2 is 8.01.

Question: What does the source list for CCOc1ccc(C[C@@H](NC(=O)CC23CC4CC(CC(C4)C2)C3)C(=O)N[C@@H](Cc2ccccc2)C(=O)N[C@H](C(=O)N[C@@H](CC(N)=O)C(=O)N[C@@H](CCCN=C(N)N)C(=O)N2CCC[C@H]2C(=O)N[C@@H](CCCN=C(N)N)C(=O)N[C@@H](CCCN=C(N)N)C(N)=O)C(C)C)cc1?
Answer: Kb (Rattus norvegicus): 10.5 nM; pA2 (Vasopressin V1 receptor): 8.13

Question: Which Effective dose [1] does the source give for CCOc1ccc(C[C@@H](NC(=O)CC(C)(C)C)C(=O)N[C@@H](Cc2ccccc2)C(=O)N[C@H](C(=O)N[C@@H](CC(N)=O)C(=O)N[C@@H](CCCN=C(N)N)C(=O)N(C)[C@@H](C)C(=O)N[C@@H](CCCN=C(N)N)C(N)=O)C(C)C)cc1 here?
Answer: The Effective dose was 0.3 nM/kg.

Question: What about the Effective dose [2] of the same compound?
Answer: The Effective dose was 16 nM/kg.

Question: What about the Kb (Vasopressin V2 receptor) of the same compound?
Answer: The Kb was 251 nM.

Question: And the Ratio [3]?
Answer: Its Ratio is 53.

Question: What about the pA2 (Vasopressin V1 receptor) of the same compound?
Answer: The pA2 was 8.34.

Question: What does the source list for CCOc1ccc(C[C@@H](NC(=O)CC23CC4CC(CC(C4)C2)C3)C(=O)N[C@@H](Cc2ccccc2)C(=O)N[C@H](C(=O)N[C@@H](CC(N)=O)C(=O)N[C@@H](CCCN)C(=O)N2CCC[C@H]2C(=O)N[C@@H](CCCN=C(N)N)C(N)=O)C(C)C)cc1?
Answer: Kb (Rattus norvegicus): 15.5 nM; pA2 (Vasopressin V1 receptor): 7.33

Question: What does the source list for CCOc1ccc(C[C@@H](NC(=O)CC(C)(C)C)C(=O)N[C@@H](Cc2ccccc2)C(=O)N[C@@H](CCC(N)=O)C(=O)N[C@@H](CC(N)=O)C(=O)N[C@@H](CCCCN)C(=O)N2CCC[C@H]2C(=O)N[C@@H](CCCN=C(N)N)C(N)=O)cc1?
Answer: Kb (Vasopressin V2 receptor): 6310 nM; pA2 (Vasopressin V1 receptor): 8.4

Question: Which Kb (Vasopressin V2 receptor) does the source give for COc1ccc(C[C@@H](NC(=O)Cc2ccccc2)C(=O)N[C@@H](Cc2ccccc2)C(=O)N[C@H](C(=O)N[C@@H](CC(N)=O)C(=O)N[C@@H](CCCCN)C(=O)N2CCC[C@H]2C(=O)N[C@@H](CCCN=C(N)N)C(N)=O)C(C)C)cc1 here?
Answer: Its Kb is 100 nM.

Question: What about the pA2 (Vasopressin V1 receptor) of the same compound?
Answer: Its pA2 is 8.61.

Question: With CCOc1ccc(C[C@@H](NC(=O)Cc2ccccc2)C(=O)N[C@@H](Cc2ccccc2)C(=O)N[C@H](C(=O)N[C@@H](CC(N)=O)C(=O)N[C@@H](CCCN)C(=O)N2CCC[C@H]2C(=O)N[C@@H](CCCN=C(N)N)C(=O)N[C@@H](CCCN=C(N)N)C(N)=O)C(C)C)cc1 as the compound, how does the Kb (Vasopressin V2 receptor) read?
Answer: The Kb was ~58.9 nM.

Question: What about the pA2 (Vasopressin V1 receptor) of the same compound?
Answer: The pA2 was 8.39.

Question: Which Kb (Vasopressin V2 receptor) does the source give for NCCCC[C@H](NC(=O)[C@H](CC(N)=O)NC(=O)[C@H](CCC(N)=O)NC(=O)[C@H](Cc1ccccc1)NC(=O)[C@@H](Cc1ccc(O)cc1)NC(=O)Cc1ccccc1)C(=O)N1CCC[C@H]1C(=O)N[C@@H](CCCN=C(N)N)C(N)=O here?
Answer: Its Kb is 63.1 nM.

Question: What about the pA2 (Vasopressin V1 receptor) of the same compound?
Answer: The pA2 was 8.91.

Question: How did the Kb (Rattus norvegicus) turn out when CCOc1ccc(C[C@H]2NC(=O)CC3(CCCCC3)SSC[C@@H](C(=O)N3CCC[C@H]3C(=O)N[C@@H](CCCN=C(N)N)C(N)=O)NC(=O)[C@H](CC(N)=O)NC(=O)[C@H](C(C)C)NC(=O)[C@H](Cc3ccccc3)NC2=O)cc1 was run?
Answer: The Kb was 20.4 nM.

Question: What about the pA2 (Vasopressin V1 receptor) of the same compound?
Answer: The pA2 was 8.17.

Question: Which results are given for CCOc1ccc(C[C@@H](NC(=O)CC23C[C@H]4C[C@@H](C2)C[C@@H](C3)C4)C(=O)N[C@@H](Cc2ccccc2)C(=O)N[C@H](C(=O)N[C@@H](CC(N)=O)C(=O)NCCCC(=O)N2CCC[C@H]2C(=O)N[C@@H](CCCN=C(N)N)C(=O)N[C@@H](CCCN=C(N)N)C(N)=O)C(C)C)cc1?
Answer: Kb (Vasopressin V2 receptor): 7.76 nM; pA2 (Vasopressin V1 receptor): 7.75

Question: For COc1ccc(C[C@@H](NC(=O)Cc2ccccc2)C(=O)N[C@@H](Cc2ccccc2)C(=O)N[C@@H](CCC(N)=O)C(=O)N[C@@H](CC(N)=O)C(=O)N[C@@H](CCCCN)C(=O)N2CCC[C@H]2C(=O)N[C@@H](CCCN=C(N)N)C(N)=O)cc1, which Kb (Rattus norvegicus) is on record?
Answer: The Kb was > 316 nM.

Question: What about the pA2 (Vasopressin V1 receptor) of the same compound?
Answer: Its pA2 is 8.93.

Question: Which results are given for CCOc1ccc(C[C@@H](NC(=O)CC23CC4CC(CC(C4)C2)C3)C(=O)N[C@@H](Cc2ccccc2)C(=O)N[C@H](C(=O)N[C@@H](CC(N)=O)C(=O)N[C@@H](CCCN)C(=O)N2CCC[C@H]2C(=O)N[C@@H](CCCN=C(N)N)C(=O)N[C@@H](CCCN=C(N)N)C(N)=O)C(C)C)cc1?
Answer: Kb (Rattus norvegicus): ~12.6 nM; pA2 (Vasopressin V1 receptor): 7.64

Question: With CCOc1ccc(C[C@@H](NC(=O)CC23CC4CC(CC(C4)C2)C3)C(=O)N[C@@H](Cc2ccccc2)C(=O)N[C@H](C(=O)N[C@@H](CC(N)=O)C(=O)N[C@@H](CCCCN)C(=O)N2CCC[C@H]2C(=O)N[C@@H](CCCN=C(N)N)C(N)=O)C(C)C)cc1 as the compound, how does the Kb (Vasopressin V2 receptor) read?
Answer: The Kb was 15.5 nM.

Question: And the pA2 (Vasopressin V1 receptor)?
Answer: Its pA2 is 8.02.

Question: With CCOc1ccc(C[C@@H](NC(=O)CC23CC4CC(CC(C4)C2)C3)C(=O)N[C@@H](Cc2ccccc2)C(=O)N[C@H](C(=O)N[C@@H](CC(N)=O)C(=O)N[C@@H](CCCN=C(N)N)C(=O)N(C)[C@@H](C)C(=O)N[C@@H](CCCN=C(N)N)C(N)=O)C(C)C)cc1 as the compound, how does the Kb (Rattus norvegicus) read?
Answer: Its Kb is 17 nM.

Question: What about the Effective dose [1] of the same compound?
Answer: The Effective dose was 0.37 nM/kg.

Question: And the Effective dose [2]?
Answer: Its Effective dose is 1.2 nM/kg.

Question: And the Ratio [3]?
Answer: Its Ratio is 3.2.

Question: What about the pA2 (Vasopressin V1 receptor) of the same compound?
Answer: Its pA2 is 8.28.

Question: What does the source list for CCOc1ccc(C[C@@H](NC(=O)CC23C[C@H]4C[C@@H](C2)C[C@@H](C3)C4)C(=O)N[C@@H](Cc2ccccc2)C(=O)N[C@H](C(=O)N[C@@H](CC(N)=O)C(=O)N[C@@H](CC)C(=O)N2CCC[C@H]2C(=O)N[C@@H](CCCN=C(N)N)C(N)=O)C(C)C)cc1?
Answer: pA2 (Vasopressin V2 receptor): 7.21; pA2 (Vasopressin V1 receptor): 7.43

Question: CCOc1ccc(C[C@@H](NC(=O)CC(C)(C)C)C(=O)N[C@@H](Cc2ccccc2)C(=O)N[C@H](C(=O)N[C@@H](CC(N)=O)C(=O)N[C@@H](CCCCN)C(=O)N2CCC[C@H]2C(=O)N[C@@H](CCCN=C(N)N)C(N)=O)C(C)C)cc1 was tested. Which Kb (Rattus norvegicus) did it give?
Answer: The Kb was 100 nM.

Question: What about the pA2 (Vasopressin V1 receptor) of the same compound?
Answer: Its pA2 is 8.63.

Question: What does the source list for CCOc1ccc(C[C@@H](NC(=O)Cc2ccccc2)C(=O)N[C@@H](Cc2ccccc2)C(=O)N[C@H](C(=O)N[C@@H](CC(N)=O)C(=O)N[C@@H](CCCCN)C(=O)N2CCC[C@H]2C(=O)N[C@@H](CCCN=C(N)N)C(=O)N[C@@H](CCCN=C(N)N)C(N)=O)C(C)C)cc1?
Answer: Kb (Rattus norvegicus): ~141 nM; pA2 (Vasopressin V1 receptor): 8.47

Question: How did the Kb (Rattus norvegicus) turn out when CCOc1ccc(C[C@@H](NC(=O)Cc2ccccc2)C(=O)N[C@@H](Cc2ccccc2)C(=O)N[C@@H](CCC(N)=O)C(=O)N[C@@H](CC(N)=O)C(=O)N[C@@H](CCCCN)C(=O)N2CCC[C@H]2C(=O)N[C@@H](CCCN=C(N)N)C(N)=O)cc1 was run?
Answer: The Kb was 501 nM.

Question: What about the pA2 (Vasopressin V1 receptor) of the same compound?
Answer: Its pA2 is 9.05.
